As usually defined, the melting point is the temperature, or range, at which the solid turns liquid. In turn, `COc1ccc(OC(=O)NCc2ccc(Oc3ccccc3)cc2)cc1` yielded a melting point of 89 to 91 °C.
Molecule `Cc1ccc(OC(=O)NCCc2ccc(-c3ccccc3)cc2)cc1` displayed a melting point of 172 to 174 °C.
In turn, `O=C(NCc1ccc(-c2ccccc2)cc1)Oc1ccc(F)cc1` returned a melting point of 155 to 157 °C.
As for `O=C(NCc1ccc(-c2ccccc2)cc1)OCC(F)(F)F` [Compound No. 1, 2,2,2-Trifluoroethyl 1,1′-biphenyl-4-ylmethylcarbamate], the melting point lay in the range of 123 to 125 °C.
As to `O=C(NCc1ccc(Oc2ccccc2)cc1)OCC(F)(F)F` [Compound No. 10, 2,2,2-Trifluoroethyl 4-phenyloxybenzylcarbamate], the melting point was 145 to 148 °C.
Regarding `O=C(NCCc1ccc(-c2ccccc2)cc1)OCC(F)(F)F` [Compound No. 19, 2,2,2-Trifluoroethyl 2-(1,1′-biphenyl-4-yl)ethylcarbamate], the melting point is 79 to 81 °C.
